# Marks after values point to notes of the source that are not given here.
# Test system: absorption of calcium, magnesium, phosphorus and iron in alimentary canal
# Test: Mineral amounts and absorption percentages in alimentary canal contents and excrement of rats
# Format: in vivo, Wister rats
# Description: Forty of Wister rats weighing 110 to 120 g (five-weeks aged male, commercialized by Charles River Japan Inc., Yokohama, Japan) were bred with a feed containing ingredients (%) shown in Table 1 for one week in order to be familiarized. The familiarized rats were randomly divided into four groups with ten rats each. Each group was experimentally bred for eight weeks with either a feed without cyclic tetrasaccharide shown in Table 1 (hereinafter, it is called as “basic feed”), or another feed of basic feed supplemented with 1%, 2% or 5% on a dry solid basis, of cyclic tetrasaccharide in a crystalline anhydrous powder form with a purity of 99.5%, prepared in the following Example A-3. These basic feed and three kinds of feeds with cyclic tetrasaccharide were prepared to contain 44.75% of the total amount of cyclic tetrasaccharide and corn starch in each feed. From one week before the end of the breeding test, in order to determine the metabolism of calcium, magnesium, iron, sodium, potassium and phosphorus (hereinafter, may be called “minerals” in all), rats in the all groups were fed with the four types of feeds supplemented with 0.5% of chromium oxide as a non-absorbed marker for the minerals. The rats were bred at 25° C. in a manner of freely allowing to take feeds and water under a condition of 12 hours regular interval between of light and shade. After completion of experimental breeding, all rats were individually weighed to calculate the average of weight and further calculate the rate of increased weight for each group.
# Two days before the end of the breeding test, rats were placed into a gauge for measuring metabolism to collect their excrement in two days. The resulting excrement was subjected to the measurement of the contents of cyclic tetrasaccharide, each mineral, and chromium. After the breeding test, the rats were anatomized in an anesthetized condition to take out their alimentary canals including jejunum, intestinum ileum, appendix and colon/rectum. After the resulting alimentary canals were weighed, their contents were also weighed and subjected to the measurement of the amount of cyclic tetrasaccharide, minerals and chromium. The rats, which had been taken out their alimentary canals, were dislocated at their cervical vertebrae and taken out their femurs from right legs. The resulting femurs were subjected to the measurement of the amount of ashes, calcium, magnesium and phosphorus. The following(s) explain the methods of quantitative analysis of cyclic tetrasaccharide and the methods of measurement of minerals and chromium.
# Two grams of a feed was preciously weighed in a porcelain crucible, heated to carbonize, and heated at 600° C. to incinerate. After weighed, the resulting test samples were admixed with hydrochloric acid in a precious analysis grade (concentration of 20%, commercialized by Wako Pure Chemicals, Co., Ltd., Osaka, Japan) to give a final concentration of 1%. They were subjected to atomic absorption spectrometry (“Zeeman5100™”, commercialized by PerkinElmer); in the case of measurement of chromium, they were subjected to a flameless type one. In the case of measurement of phosphorus, they were subjected to usual molybdenum blue absorptiometry. On the other hand, 0.1 g of each of the contents of jejunum, intestinum ileum, appendix, colon/rectum, and excrement was subjected to wet-type incineration to prepare test samples similarly as in the above case of feed, and the test samples were quantified. The right femurs taken out from the anatomized rats were dried at 105° C. for 15 hours and measured as a dry weight. The resulting dried femurs were precisely weighed in a porcelain crucible, and incinerated similarly as in the case of the feed. The resultants were weighed and quantified for calcium, magnesium and phosphorus.
# [1] = feed supplemented with 1% cyclic tetrasaccharide
# [2] = feed supplemented with 2% cyclic tetrasaccharide
# [3] = feed supplemented with 5% cyclic tetrasaccharide
compound,measurement,setting,value
"OC[C@H]1O[C@@H]2OC[C@H]3O[C@H](O[C@@H]4[C@@H](O)[C@@H](OC[C@H]5O[C@H](O[C@H]([C@H]2O)[C@@H]1O)[C@H](O)[C@@H](O)[C@@H]5O)O[C@H](CO)[C@H]4O)[C@H](O)[C@@H](O)[C@@H]3O [cyclic tetrasaccharide, cyclo{>6)-α-D-glucopyranosyl-(1>3)-α-D-glucopyranosyl-(1>6)-α-D-glucopyranosyl-(1>3)-α-D-glucopyranosyl-(1>}]","absorption rates of calcium, magnesium, phosphorus and iron in intestinum ileum and lower alimentary canal","against basic feed, 1%, 2%, 5% feeds",significantly increased in a dose-dependent manner
same,"Absorption percentage of calcium, appendix",[1],(83) %
same,"Absorption percentage of calcium, colon/rectum",[1],(86) %
same,"Absorption percentage of calcium, excrement",[1],(88) %
same,"Absorption percentage of calcium, intestinum ileum",[1],(79) %
same,"Absorption percentage of iron, appendix",[1],(74) %
same,"Absorption percentage of iron, colon/rectum",[1],(80) %
same,"Absorption percentage of iron, excrement",[1],(85) %
same,"Absorption percentage of iron, intestinum ileum",[1],(67) %
same,"Absorption percentage of magnesium, appendix",[1],(84) %
same,"Absorption percentage of magnesium, colon/rectum",[1],(86) %
same,"Absorption percentage of magnesium, excrement",[1],(88) %
same,"Absorption percentage of magnesium, intestinum ileum",[1],(80) %
same,"Absorption percentage of phosphorus, appendix",[1],(88) %
same,"Absorption percentage of phosphorus, colon/rectum",[1],(92) %
same,"Absorption percentage of phosphorus, excrement",[1],(95) %
same,"Absorption percentage of phosphorus, intestinum ileum",[1],(84) %
same,"Amount of Phosphorus, content of appendix",[1],5.39 * mg/g
same,"Amount of Phosphorus, content of colon/rectum",[1],5.18 * mg/g
same,"Amount of Phosphorus, content of intestinum ileum",[1],3.45 * mg/g
same,"Amount of Phosphorus, excrement",[1],17.74 * mg/g
same,"Amount of calcium, content of appendix",[1],10.56 * mg/g
same,"Amount of calcium, content of colon/rectum",[1],9.83 * mg/g
same,"Amount of calcium, content of intestinum ileum",[1],6.02 * mg/g
same,"Amount of calcium, excrement",[1],54.29 * mg/g
same,"Amount of iron, content of appendix",[1],0.16 * mg/g
same,"Amount of iron, content of colon/rectum",[1],0.14 * mg/g
same,"Amount of iron, content of intestinum ileum",[1],0.10 * mg/g
same,"Amount of iron, excrement",[1],0.71 * mg/g
same,"Amount of magnesium, content of appendix",[1],2.24 * mg/g
same,"Amount of magnesium, content of colon/rectum",[1],2.17 * mg/g
same,"Amount of magnesium, content of intestinum ileum",[1],1.30 * mg/g
same,"Amount of magnesium, excrement",[1],12.06 * mg/g
same,"Absorption percentage of calcium, appendix",[2],(88) %
same,"Absorption percentage of calcium, colon/rectum",[2],(90) %
same,"Absorption percentage of calcium, excrement",[2],(92) %
same,"Absorption percentage of calcium, intestinum ileum",[2],(84) %
same,"Absorption percentage of iron, appendix",[2],(77) %
same,"Absorption percentage of iron, colon/rectum",[2],(83) %
same,"Absorption percentage of iron, excrement",[2],(88) %
same,"Absorption percentage of iron, intestinum ileum",[2],(67) %
same,"Absorption percentage of magnesium, appendix",[2],(86) %
same,"Absorption percentage of magnesium, colon/rectum",[2],(88) %
same,"Absorption percentage of magnesium, excrement",[2],(90) %
same,"Absorption percentage of magnesium, intestinum ileum",[2],(80) %
same,"Absorption percentage of phosphorus, appendix",[2],(92) %
same,"Absorption percentage of phosphorus, colon/rectum",[2],(94) %
same,"Absorption percentage of phosphorus, excrement",[2],(97) %
same,"Absorption percentage of phosphorus, intestinum ileum",[2],(87) %
same,"Amount of Phosphorus, content of appendix",[2],5.35 * mg/g
same,"Amount of Phosphorus, content of colon/rectum",[2],4.10 * mg/g
same,"Amount of Phosphorus, content of intestinum ileum",[2],4.17 * mg/g
same,"Amount of Phosphorus, excrement",[2],10.27 * mg/g
same,"Amount of calcium, content of appendix",[2],8.98 * mg/g
same,"Amount of calcium, content of colon/rectum",[2],7.45 * mg/g
same,"Amount of calcium, content of intestinum ileum",[2],5.61 * mg/g
same,"Amount of calcium, excrement",[2],28.62 * mg/g
same,"Amount of iron, content of appendix",[2],0.18 * mg/g
same,"Amount of iron, content of colon/rectum",[2],0.14 * mg/g
same,"Amount of iron, content of intestinum ileum",[2],0.12 * mg/g
same,"Amount of iron, excrement",[2],0.49 * mg/g
same,"Amount of magnesium, content of appendix",[2],2.40 * mg/g
same,"Amount of magnesium, content of colon/rectum",[2],2.09 * mg/g
same,"Amount of magnesium, content of intestinum ileum",[2],1.61 * mg/g
same,"Amount of magnesium, excrement",[2],9.21 * mg/g
same,"Absorption percentage of calcium, appendix",[3],(93) %
same,"Absorption percentage of calcium, colon/rectum",[3],(94) %
same,"Absorption percentage of calcium, excrement",[3],(94) %
same,"Absorption percentage of calcium, intestinum ileum",[3],(89) %
same,"Absorption percentage of iron, appendix",[3],(78) %
same,"Absorption percentage of iron, colon/rectum",[3],(84) %
same,"Absorption percentage of iron, excrement",[3],(89) %
same,"Absorption percentage of iron, intestinum ileum",[3],(69) %
same,"Absorption percentage of magnesium, appendix",[3],(88) %
same,"Absorption percentage of magnesium, colon/rectum",[3],(91) %
same,"Absorption percentage of magnesium, excrement",[3],(93) %
same,"Absorption percentage of magnesium, intestinum ileum",[3],(84) %
same,"Absorption percentage of phosphorus, appendix",[3],(93) %
same,"Absorption percentage of phosphorus, colon/rectum",[3],(94) %
same,"Absorption percentage of phosphorus, excrement",[3],(97) %
same,"Absorption percentage of phosphorus, intestinum ileum",[3],(87) %
same,"Amount of Phosphorus, content of appendix",[3],3.43 * mg/g
same,"Amount of Phosphorus, content of colon/rectum",[3],3.06 * mg/g
same,"Amount of Phosphorus, content of intestinum ileum",[3],2.84 * mg/g
same,"Amount of Phosphorus, excrement",[3],8.98 * mg/g
same,"Amount of calcium, content of appendix",[3],4.99 * mg/g
same,"Amount of calcium, content of colon/rectum",[3],5.00 * mg/g
same,"Amount of calcium, content of intestinum ileum",[3],3.48 * mg/g
same,"Amount of calcium, excrement",[3],26.47 * mg/g
same,"Amount of iron, content of appendix",[3],0.19 * mg/g
same,"Amount of iron, content of colon/rectum",[3],0.13 * mg/g
same,"Amount of iron, content of intestinum ileum",[3],0.10 * mg/g
same,"Amount of iron, excrement",[3],0.66 * mg/g
same,"Amount of magnesium, content of appendix",[3],2.03 * mg/g
same,"Amount of magnesium, content of colon/rectum",[3],1.55 * mg/g
same,"Amount of magnesium, content of intestinum ileum",[3],1.04 * mg/g
same,"Amount of magnesium, excrement",[3],8.37 * mg/g

# From patent publication US20080113938A1, “ACCELERATOR FOR MINERAL ABSORPTION AND USE THEREOF” (KABUSHIKI KAISHA HAYASHIBARA SEIBUTSU KAGAKU KENKYUJO, priority 2003, published 2008)
